Results reported in US5428059A, “Benzopyran derivatives and an anti-allergic agent possessing the same as the active ingredient” (Dainippon Ink & Chemicals, Inc., priority 1991, dated 1995).

Legend:
[1] = Mouse Acute Toxicity Assay (oral, 7 days observation); conditions: in vivo, ICR-type male mice, single forced oral administration 1000 and 2000 mg/kg, estimated from survival ratio
Experimental: Mouse Acute Toxicity Assay
The present Example was carried out in order to confirm the safety of the novel compound according to the present invention. In the following the assay method used will be explained.
Assay method: After ICR-type male mice (body weight=20~25 g) were fasted for 16 hours, each substance to be tested was forcibly administered orally at 1000 mg/kg and 2000 mg/kg to groups of five mice, using a esophageal sound. After administration, the mice were kept in cages for seven days, following which observations were made on the general conditions and existence of dead animals. From the survival ratio of the mice at the end of the observation, the lethal dose 50 (LD50) was estimated.
The results of the mouse acute toxicity assay are recorded in Tables 1 and 2.

[2] = system: Hartley-type male guinea pigs; test: Guinea Pig Homogeneous Skin Passive Anaphylaxis Assay (PCA reaction); format: in vivo, guinea pig (Hartley-type); conditions: for inhibition in vivo at 10 mg/kg: 10 mg/kg oral
How it was run: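 Male Hartley guinea pigs (250~300 g) given intradermal back injections of 120-fold-diluted anti-OVA serum; 48 h later test substance dosed orally at 10 mg/kg, then challenged i.v. with OVA plus Evans Blue. Dye-spot area (long × short diameter, mm^2) measured at 30 min; inhibition % calculated against solvent control.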

[3] = oral administration; cited from earlier work
mice = conditions: Tranilast, cited from earlier work
[4] = Cavia porcellus, 48 h after sensitization, read-out: Allergic reaction inhibitory index (%)

CC(C)=CCC/C(C)=C/COc1ccc2oc(=O)c(O)c(O)c2c1 [Compound 280, 3,4-(dihydroxy)-6-(geranyloxy)-2H-1-benzopyran-2-one]
LD50 at 168 h [1]: > 1000 mg/kg
inhibition in vivo at 10 mg/kg [2, 4]: 35%

O=C(O)c1cc(=O)c2c(OCC(O)COc3cccc4oc(C(=O)O)cc(=O)c34)cccc2o1 [Disodium Cromoglicate]
absorption into the living body [3]: difficult to absorb

COc1ccc(/C=C/C(=O)Nc2ccccc2C(=O)O)cc1OC [Tranilast, reference compound]
inhibition in vivo at 100 mg/kg ([2]; Cavia porcellus, positive control, 100 mg/kg oral, 48 h after sensitization, read-out: Allergic reaction inhibitory index (%)): 52%
anti-allergic action, compounds of the invention (10 mg/kg) versus Tranilast (100 mg/kg) ([2]; oral): approximately equal to or less than the anti-allergic action exhibited by the compounds of the present invention
acute toxic value (LD50) (mice; background): 680 to 780 mg/kg
LD50 (mice; male mice): 780 mg/kg

CC(C)=CCC/C(C)=C/COc1c(O)c2cc(O)ccc2oc1=O [Compound 269, 4,6-(dihydroxy)-3-(geranyloxy)-2H-1-benzopyran-2-one]
LD50 at 168 h [1]: > 1000 mg/kg
inhibition in vivo at 10 mg/kg [2, 4]: 33%
